ChEMBL document CHEMBL2434824, “Synthesis, characterization and molecular docking studies of some new 1,3,4-oxadiazolines bearing 6-methylpyridine moiety for antimicrobial property” (Eur J Med Chem, 2013)
Active and inactive are the calls of the source. The rule behind the calls is not given here.

Experiments:
Staphylococcus aureus = test: Antibacterial activity against Staphylococcus aureus ATCC 25923 at 0.5 to 1 mg/ml at 37 degC after 18 hrs by well plate method; assay type: functional, organism-based
Pseudomonas aeruginosa = test: Antibacterial activity against Pseudomonas aeruginosa ATCC 27853 at 0.5 to 1 mg/ml at 37 degC after 18 hrs by well plate method; assay type: functional, organism-based
[1] = tested on: Radical scavenging activity; test: Antioxidant activity assessed as DPPH radical scavenging activity at 100 ug after 10 mins by UV-Visible spectrophotometry; assay type: functional
Escherichia coli = test: Antibacterial activity against Escherichia coli ATCC 25922 at 0.5 to 1 mg/ml at 37 degC after 18 hrs by well plate method; assay type: functional, organism-based
[2] = Antifungal activity against Chrysosporium keratinophilum at 0.5 to 1 mg/ml at 25 degC after 3 days by well plate method; assay type: functional
Aspergillus flavus = test: Antifungal activity against Aspergillus flavus at 0.5 to 1 mg/ml at 25 degC after 3 days by well plate method; assay type: functional, organism-based

Question: For `CC(=O)N1N=C(c2ccc(C)nc2)OC1(C)c1ccc([N+](=O)[O-])cc1` (stereo unspecified), which Activity (Staphylococcus aureus) is on record?
Answer: Active

Question: What about the Activity (Pseudomonas aeruginosa) of the same compound?
Answer: Active

Question: What about the Activity [1] of the same compound?
Answer: 52.4%

Question: What about the Activity (Escherichia coli) of the same compound?
Answer: Active

Question: With `CC(=O)N1N=C(c2ccc(C)nc2)OC1c1ccc(Br)cc1` (stereo unspecified) as the compound, how does the Activity (Staphylococcus aureus) read?
Answer: Active

Question: What about the Activity [2] of the same compound?
Answer: Active

Question: What about the Activity (Pseudomonas aeruginosa) of the same compound?
Answer: Active

Question: And the Activity [1]?
Answer: 65.5%

Question: And the Activity (Escherichia coli)?
Answer: Active

Question: And the Activity (Aspergillus flavus)?
Answer: Active

Question: Which Activity (Staphylococcus aureus) does the source give for `CC(=O)N1N=C(c2ccc(C)nc2)OC1c1cccc(Cl)c1F` (stereo unspecified) here?
Answer: Active

Question: What about the Activity [2] of the same compound?
Answer: Active

Question: What about the Activity (Pseudomonas aeruginosa) of the same compound?
Answer: Active

Question: And the Activity [1]?
Answer: 37.3%

Question: What about the Activity (Escherichia coli) of the same compound?
Answer: Active

Question: What about the Activity (Aspergillus flavus) of the same compound?
Answer: Active

Question: For `CC(=O)N1N=C(c2ccc(C)nc2)OC1c1ccc(Cl)cc1Cl` (stereo unspecified), which Activity (Staphylococcus aureus) is on record?
Answer: Active

Question: What about the Activity [2] of the same compound?
Answer: Active

Question: What about the Activity (Pseudomonas aeruginosa) of the same compound?
Answer: Active

Question: And the Activity [1]?
Answer: 62.3%

Question: And the Activity (Escherichia coli)?
Answer: Active

Question: What about the Activity (Aspergillus flavus) of the same compound?
Answer: Active

Question: Which Activity [1] does the source give for `CC(=O)c1ccc(C2(C)OC(c3ccc(C)nc3)=NN2C(C)=O)cc1` (stereo unspecified) here?
Answer: 42.3%

Question: Which Activity [1] does the source give for `CC(=O)N1N=C(c2ccc(C)nc2)OC1c1cccs1` (stereo unspecified) here?
Answer: 12%

Question: For `CC(=O)N1N=C(c2ccc(C)nc2)OC1(C)c1ccc(-c2ccccc2)cc1` (stereo unspecified), which Activity [1] is on record?
Answer: 47.7%

Question: Which Activity (Staphylococcus aureus) does the source give for `CC(=O)N1N=C(c2ccc(C)nc2)OC1(C)c1sccc1Br` (stereo unspecified) here?
Answer: Active

Question: What about the Activity [2] of the same compound?
Answer: Active

Question: And the Activity (Pseudomonas aeruginosa)?
Answer: Active

Question: What about the Activity [1] of the same compound?
Answer: 44.2%

Question: What about the Activity (Escherichia coli) of the same compound?
Answer: Active

Question: What about the Activity (Aspergillus flavus) of the same compound?
Answer: Active

Question: For `CC(=O)N1N=C(c2ccc(C)nc2)OC1(C)c1cccc(Br)c1` (stereo unspecified), which Activity (Staphylococcus aureus) is on record?
Answer: Active

Question: What about the Activity [2] of the same compound?
Answer: Active

Question: What about the Activity (Pseudomonas aeruginosa) of the same compound?
Answer: Active

Question: What about the Activity [1] of the same compound?
Answer: 32.9%

Question: And the Activity (Escherichia coli)?
Answer: Active

Question: What about the Activity (Aspergillus flavus) of the same compound?
Answer: Active

Question: What does the source list for `OC(Cn1cncn1)(Cn1cncn1)c1ccc(F)cc1F`?
Answer: Activity [2]: Active; Activity (Aspergillus flavus): Active

Question: What does the source list for `CN[C@@H]1[C@H](O[C@H]2[C@H](O[C@H]3[C@H](O)[C@@H](O)[C@H](N=C(N)N)[C@@H](O)[C@@H]3N=C(N)N)O[C@@H](C)[C@]2(O)C=O)O[C@@H](CO)[C@H](O)[C@H]1O`?
Answer: Activity (Staphylococcus aureus): Active; Activity (Pseudomonas aeruginosa): Active; Activity (Escherichia coli): Active

Question: For `CC(=O)N1N=C(c2ccc(C)nc2)OC1c1ccc(Cl)cc1` (stereo unspecified), which Activity (Staphylococcus aureus) is on record?
Answer: Active

Question: And the Activity (Pseudomonas aeruginosa)?
Answer: Active

Question: And the Activity [1]?
Answer: 49.2%

Question: What about the Activity (Escherichia coli) of the same compound?
Answer: Active

Question: For `COc1ccc2cc(C3OC(c4ccc(C)nc4)=NN3C(C)=O)ccc2c1` (stereo unspecified), which Activity [1] is on record?
Answer: 27.5%

Question: With `COc1ccc(C2OC(c3ccc(C)nc3)=NN2C(C)=O)c(OC)c1` (stereo unspecified) as the compound, how does the Activity [1] read?
Answer: 24.3%

Question: For `CC(=O)N1N=C(c2ccc(C)nc2)OC1c1ccc(-c2ccccc2)cc1` (stereo unspecified), which Activity [1] is on record?
Answer: 15.6%

Question: Which Activity [1] does the source give for `CC(=O)N1N=C(c2ccc(C)nc2)OC1c1ccc(O)c(O)c1` (stereo unspecified) here?
Answer: 13.3%

Question: Which Activity [1] does the source give for `Cc1cc(C(C)(C)C)c(O)c(C(C)(C)C)c1` here?
Answer: 92.4%
